Measured values from US20040198811A1 (H. Lundbeck A/S, priority 2001, published 2004).

How the values were obtained:
Format in all cases: in vivo
[1] = system: primary care patients with major depression disorder; assay: 8-week, double-blind, randomised, placebo-controlled, flexible-dose clinical study
Excerpt: (§1) This has i.a. been found in the Chronic Mild Stress model (Willner P., Psychopharmachology 1997, 134, 319-329).
A total of 471 patients were randomised into the study. The all-patient-treated set comprised 469 patients and the full-analysis set comprised 468 patients.
There was an approximately 3 to 1 ratio of women to men in each treatment group, and almost all patients were Caucasian. The mean age was 43 years (SD 11). At baseline, the mean MADRS total score was approximately 29 for the treatment group, which signifies moderate to severely ill patients.

[2] = pharmacological and clinical studies (effect of R-citalopram, potency versus racemate)
Excerpt: This may be shown in functional in-vivo pharmacological models and studies of 5-HT-reuptake effect and or in behaviour models, for example depression models.

[3] = fixed dose studies (MADRS rating scale and Clinical Global Impression); settings: escitalopram in a dose of 10 mg
[4] = system: animal models; assay: Chronic Mild Stress model
Excerpt: as §1

[5] = Week 4, last observation carried forward, 10 mg escitalopram, 20 mg citalopram

| Compound | adjusted mean change in MADRS total score versus placebo [1, 5] [points] | impact on the effect of escitalopram ([2]; in vivo) | onset of effect ([1]; 10 mg escitalopram, 20 mg citalopram, versus placebo) | therapeutic effect versus placebo on adjusted mean change in MADRS total score ([1]; Week 1 (p=0.023) to Week 4, observed cases) | CGI improvement and severity subscale versus placebo ([1]; Week 4, last observation carried forward) | CGI improvement and severity subscale versus placebo ([1]; from Week 1 onwards, 4-week period, observed cases) | effect as determined by MADRS rating scale and Clinical Global Impression (severity and improvement) [3] | speed of response [4] | potency relative to the racemate ([2]; pharmacological and clinical studies) |
| --- | --- | --- | --- | --- | --- | --- | --- | --- | --- |
| CN(C)CCCC1(c2ccc(F)cc2)OCc2cc(C#N)ccc21 (racemic) [citalopram, reference compound] | 1.5 |  |  |  |  |  |  |  |  |
| CN(C)CCC[C@]1(c2ccc(F)cc2)OCc2cc(C#N)ccc21 [R-citalopram, reference compound] |  | negative impact |  |  |  |  |  |  |  |
| (S)-1-[3-(dimethylamino)propyl]-1-4-fluorophenyl)-1,3-dihydro-5-isobenzofurancarbonitdile [escitalopram] | 2.7 |  | showed effects after one week | significantly superior therapeutic effect | statistically significantly superior to placebo | significantly superior to placebo | at least same effect as citalopram in a dose of 40 mg | faster response than citalopram-racemate | substantially more than two times as potent as the racemate |
